Data as given in patent publication US6403343B2, “Method of producing a taxane-type diterpene and a method of obtaining cultured cells which produce the taxane-type dilterpene at a high rate” (Mitsui Chemicals, Inc., priority 1993, dated 2002).

System: cultured cells of Taxus baccata LINN
Test: Growth rate and taxane yield, 21-day shake culture of Taxus baccata cells with heavy metal compound, amine, antiethylene agent or Ethrel added
Format: cell-based
Protocol: (§1) One gram (fresh weight) of the callus was inoculated to an Erlenmeyer flask containing 20 ml of liquid Woody Plant Medium to which the above-mentioned component was added to give the same concentration and shake culture was carried out with a rotary shaker (amplification of 25 mm, 100 rpm) and the callus was subcultured in every 21 days to accelerate the growth rate thereof.
Then shake culture was carried out at 25° C. for 21 days.
(§2) After completing the culture, cultured cells of Taxus baccata LINN were harvested by filtration and lyophilized, then the dry weight was measured to obtain the growth rate thereof. Taxane-type diterpenes were extracted from the dried callus with methanol and the like, and they were determined by comparing with standard taxol, cephalomannine, and baccatin III using high performance liquid chromatography to measure the yields of the taxane-type diterpenes.
as §1
One gram (fresh weight) of the cultured cells thus obtained was inoculated to an Erlenmeyer flask containing 20 ml of liquid Woody Plant Medium to which the above-mentioned component had been added to give the same concentration, then spermidine was added to it as amine to give the final concentration of 10^−9M-1M. Then shake culture was carried out at 25° C. for 21 days.
as §2, with “cells” for “callus”, “diterpene.” for “diterpenes.”
as §1, with “component had been” for “component was”
One gram (fresh weight) of the cultured cells thus obtained was inoculated to an Erlenmeyer flask containing 20 ml of liquid Woody Plant Medium to which the above-mentioned component had been added to give the same concentration, and shake culture was carried out at 25° C. for 14 days.

[1] = 10^−3 M added at start, 21 days
[2] = 10^−3 M added on 14th day, 7 more days
[3] = 1 M added on 14th day, 7 more days
[4] = 10^−1 M added on 14th day, 7 more days
[5] = 10^−2 M added on 14th day, 7 more days
[6] = 10^−4 M added on 14th day, 7 more days
[7] = 10^−5 M added on 14th day, 7 more days
[8] = 10^−6 M added on 14th day, 7 more days
[9] = 10^−7 M added on 14th day, 7 more days
[10] = 10^−8 M added on 14th day, 7 more days
[11] = 10^−9 M added on 14th day, 7 more days
[12] = 10^−1 M added at start, 21 days
[13] = 10^−2 M added at start, 21 days
[14] = 10^−4 M added at start, 21 days
[15] = 10^−5 M added at start, 21 days
[16] = 10^−6 M added at start, 21 days
[17] = 10^−7 M added at start, 21 days
[18] = 10^−8 M added at start, 21 days
[19] = 10^−9 M added at start, 21 days
[20] = Ethrel 10^−3 M added at the 14th day, no acetylsalicylic acid, oxygen 20%
[21] = Ethrel 10^−3 M added at the 14th day, no acetylsalicylic acid, oxygen 20%, cell + medium

SMILES: O=[N+]([O-])[O-].[Ag+] [silver nitrate]
- growth rate [1]: 2.8 times
- total yield of taxane [1]: 23.21 mg/L
- yield of baccatin III [1]: 3.01 mg/L
- yield of cephalomannine [1]: 7.54 mg/L
- yield of taxol [1]: 12.66 mg/L
- growth rate [2]: 2.8 times
- total yield of taxane [2]: 20.58 mg/L
- yield of baccatin III [2]: 2.18 mg/L
- yield of cephalomannine [2]: 6.49 mg/L
- yield of taxol [2]: 11.91 mg/L

SMILES: CCCOC(=O)c1cc(O)c(O)c(O)c1 [propyl gallate]
- growth rate [3]: 1.1 times
- total yield of taxane [3]: 0.01 mg/L
- yield of baccatin III [3]: 0.01 mg/L
- yield of cephalomannine [3]: 0 mg/L
- yield of taxol [3]: 0 mg/L
- growth rate [4]: 1.9 times
- total yield of taxane [4]: 1.38 mg/L
- yield of baccatin III [4]: 0.48 mg/L
- yield of cephalomannine [4]: 0.25 mg/L
- yield of taxol [4]: 0.65 mg/L
- growth rate [5]: 2.9 times
- total yield of taxane [5]: 7.03 mg/L
- yield of baccatin III [5]: 0.69 mg/L
- yield of cephalomannine [5]: 2.01 mg/L
- yield of taxol [5]: 4.33 mg/L
- growth rate [2]: 3.2 times
- total yield of taxane [2]: 12.10 mg/L
- yield of baccatin III [2]: 0.84 mg/L
- yield of cephalomannine [2]: 4.30 mg/L
- yield of taxol [2]: 6.96 mg/L
- growth rate [6]: 3.0 times
- total yield of taxane [6]: 12.27 mg/L
- yield of baccatin III [6]: 0.87 mg/L
- yield of cephalomannine [6]: 4.42 mg/L
- yield of taxol [6]: 6.98 mg/L
- growth rate [7]: 3.0 times
- total yield of taxane [7]: 16.13 mg/L
- yield of baccatin III [7]: 2.82 mg/L
- yield of cephalomannine [7]: 5.07 mg/L
- yield of taxol [7]: 8.24 mg/L
- growth rate [8]: 3.1 times
- total yield of taxane [8]: 13.95 mg/L
- yield of baccatin III [8]: 1.91 mg/L
- yield of cephalomannine [8]: 4.38 mg/L
- yield of taxol [8]: 7.66 mg/L
- growth rate [9]: 2.7 times
- total yield of taxane [9]: 2.79 mg/L
- yield of baccatin III [9]: 0.55 mg/L
- yield of cephalomannine [9]: 0.72 mg/L
- yield of taxol [9]: 1.52 mg/L
- growth rate [10]: 2.7 times
- total yield of taxane [10]: 1.74 mg/L
- yield of baccatin III [10]: 0.42 mg/L
- yield of cephalomannine [10]: 0.68 mg/L
- yield of taxol [10]: 0.74 mg/L
- growth rate [11]: 2.7 times
- total yield of taxane [11]: 1.37 mg/L
- yield of baccatin III [11]: 0.41 mg/L
- yield of cephalomannine [11]: 0.59 mg/L
- yield of taxol [11]: 0.37 mg/L

SMILES: Cl.NOCC(=O)O [aminooxyacetic acid, aminoxyacetic acid hydrochloride]
- growth rate [3]: 0.9 times
- total yield of taxane [3]: 0 mg/L
- yield of baccatin III [3]: 0 mg/L
- yield of cephalomannine [3]: 0 mg/L
- yield of taxol [3]: 0 mg/L
- growth rate [4]: 1.2 times
- total yield of taxane [4]: 1.03 mg/L
- yield of baccatin III [4]: 0.33 mg/L
- yield of cephalomannine [4]: 0.26 mg/L
- yield of taxol [4]: 0.44 mg/L
- growth rate [5]: 1.5 times
- total yield of taxane [5]: 1.93 mg/L
- yield of baccatin III [5]: 0.32 mg/L
- yield of cephalomannine [5]: 0.71 mg/L
- yield of taxol [5]: 0.90 mg/L
- growth rate [2]: 1.5 times
- total yield of taxane [2]: 3.43 mg/L
- yield of baccatin III [2]: 1.11 mg/L
- yield of cephalomannine [2]: 0.71 mg/L
- yield of taxol [2]: 1.61 mg/L
- growth rate [6]: 1.7 times
- total yield of taxane [6]: 5.80 mg/L
- yield of baccatin III [6]: 1.92 mg/L
- yield of cephalomannine [6]: 1.22 mg/L
- yield of taxol [6]: 2.66 mg/L
- growth rate [7]: 1.7 times
- total yield of taxane [7]: 3.81 mg/L
- yield of baccatin III [7]: 1.30 mg/L
- yield of cephalomannine [7]: 1.16 mg/L
- yield of taxol [7]: 1.35 mg/L
- growth rate [8]: 1.5 times
- total yield of taxane [8]: 3.00 mg/L
- yield of baccatin III [8]: 1.08 mg/L
- yield of cephalomannine [8]: 0.73 mg/L
- yield of taxol [8]: 1.19 mg/L
- growth rate [9]: 1.7 times
- total yield of taxane [9]: 2.33 mg/L
- yield of baccatin III [9]: 0.66 mg/L
- yield of cephalomannine [9]: 0.65 mg/L
- yield of taxol [9]: 1.02 mg/L
- growth rate [10]: 1.8 times
- total yield of taxane [10]: 2.00 mg/L
- yield of baccatin III [10]: 0.61 mg/L
- yield of cephalomannine [10]: 0.62 mg/L
- yield of taxol [10]: 0.77 mg/L
- growth rate [11]: 2.3 times
- total yield of taxane [11]: 1.38 mg/L
- yield of baccatin III [11]: 0.21 mg/L
- yield of cephalomannine [11]: 0.58 mg/L
- yield of taxol [11]: 0.59 mg/L

SMILES: NCCCCN [putrescine]
- growth rate (1 M added at start, 21 days): 1.0 times
- total yield of taxane (1 M added at start, 21 days): 0.36 mg/L
- yield of baccatin III (1 M added at start, 21 days): 0.01 mg/L
- yield of cephalomannine (1 M added at start, 21 days): 0.22 mg/L
- yield of taxol (1 M added at start, 21 days): 0.13 mg/L
- growth rate [12]: 1.1 times
- total yield of taxane [12]: 2.74 mg/L
- yield of baccatin III [12]: 0.80 mg/L
- yield of cephalomannine [12]: 0.97 mg/L
- yield of taxol [12]: 0.97 mg/L
- growth rate [13]: 1.8 times
- total yield of taxane [13]: 3.18 mg/L
- yield of baccatin III [13]: 1.13 mg/L
- yield of cephalomannine [13]: 0.99 mg/L
- yield of taxol [13]: 1.06 mg/L
- growth rate [1]: 2.2 times
- total yield of taxane [1]: 6.90 mg/L
- yield of baccatin III [1]: 1.95 mg/L
- yield of cephalomannine [1]: 1.88 mg/L
- yield of taxol [1]: 3.07 mg/L
- growth rate [14]: 2.6 times
- total yield of taxane [14]: 22.65 mg/L
- yield of baccatin III [14]: 6.60 mg/L
- yield of cephalomannine [14]: 5.25 mg/L
- yield of taxol [14]: 10.80 mg/L
- growth rate [15]: 3.1 times
- total yield of taxane [15]: 23.79 mg/L
- yield of baccatin III [15]: 6.98 mg/L
- yield of cephalomannine [15]: 5.37 mg/L
- yield of taxol [15]: 11.44 mg/L
- growth rate [16]: 3.0 times
- total yield of taxane [16]: 19.44 mg/L
- yield of baccatin III [16]: 5.74 mg/L
- yield of cephalomannine [16]: 5.51 mg/L
- yield of taxol [16]: 8.19 mg/L
- growth rate [17]: 2.7 times
- total yield of taxane [17]: 6.88 mg/L
- yield of baccatin III [17]: 1.10 mg/L
- yield of cephalomannine [17]: 2.31 mg/L
- yield of taxol [17]: 3.47 mg/L
- growth rate [18]: 2.8 times
- total yield of taxane [18]: 2.94 mg/L
- yield of baccatin III [18]: 0.40 mg/L
- yield of cephalomannine [18]: 1.02 mg/L
- yield of taxol [18]: 1.52 mg/L
- growth rate [19]: 2.8 times
- total yield of taxane [19]: 1.75 mg/L
- yield of baccatin III [19]: 0.36 mg/L
- yield of cephalomannine [19]: 0.70 mg/L
- yield of taxol [19]: 0.69 mg/L

SMILES: O=P(O)(O)CCCl [Reference Example 2]
- growth rate [20]: 2.7 times
- total yield of taxane [20]: 0.30 mg/L
- yield of baccatin III [21]: 0.05 mg/L
- yield of cephalomannine [21]: 0.16 mg/L
- yield of taxol [21]: 0.09 mg/L
